Legend:
[1] = test system: Proteus Mirabilis (ATCC 29906); experiment: Antibacterial Test 1: bacterial growth inhibition rate by absorbance at 600 nm; format: cell-based; conditions: 0.1 g sample in 25 ml nutrient broth, 3000 CFU/ml, 37° C., 16 hours
Procedure: Antibacterial tests were performed on the antibacterial polymers prepared in Examples and Comparative Examples. Specifically, in the antibacterial test, the bacterial growth inhibition rate (%) was measured by the following method. In addition, the bacterial growth inhibition rate (%) of Icaridin and Menthol acrylate as single molecules was also measured by the same method and shown as Comparative Examples 2 and 3.
0.1 g of the antibacterial polymer prepared above was added to 25 ml of nutrient broth culture medium inoculated with the test bacterium Proteus Mirabilis (ATCC 29906) at 3000 CFU/ml, and then incubated in a shaking incubator (VS-37SIF, produced by Visiontech) at 37° C. for 16 hours. The absorbance at 600 nm wavelength of the cultured solution was measured using a UV-Vis Spectrophotometer (Optizen POP, produced by K Lab). In addition, in a pure culture medium containing no antibacterial polymer, a solution prepared by culturing Proteus Mirabilis (ATCC 29906) at 37° C. for 16 hours was prepared as a control group, and the absorbance at a 600 nm wavelength was measured by the same manner as above. Using the measurement result, the bacterial growth inhibition rate (%) of Proteus Mirabilis (ATCC 29906) was calculated according to Equation 1 below, and the results are shown in Table 1 below. […]

E. Coli = experiment: Antibacterial Test 2: bacterial reduction rate, ASTM E 2149 test method; format: cell-based, Escherichia coli; conditions: 0.2 g sample, 10 mL PBS with E. Coli, 37° C., colony count; for 1 hour-bacterial reduction rate: 1 hour-contact; for 24 hour-bacterial reduction rate: 24 hour-contact
Procedure: Antibacterial tests were performed on the antibacterial polymers prepared in Examples and Comparative Examples. Specifically, based on the ASTM E 2149 antibacterial test method, the bacterial reduction rate (%) was measured by the following method. In addition, the bacterial reduction rates (%) of Icaridin and Menthol acrylate as single molecules was also measured by the same method and shown as Comparative Examples 2 and 3.
The sample (0.2 g) was placed in a 50 mL conical tube, to which 1× PBS (10 mL) inoculated with E. Coli (1.5×10^5 CFU/mL) was added, and cultured for 1 hour and 24 hours in a shaking incubator at 37° C., so as to allow the bacteria and the material to come into sufficient contact with each other. In order to check the colony of E. coli in the cultured sample, the sequentially diluted solution was spread on a TSA Agar plate, and then cultured for 16 hours so as to form colonies in an incubator at 30° C. The degree of bacterial culture was grasped from the number of colonies formed, and the antibacterial performance was compared.
In the above equation, Cs is the number of microorganisms (CFU/ml) in the experimental group, which can be confirmed as the number of colonies formed on the TSA Agar plate, and C0 is the number of microorganisms in the control group, which means the number of E. Coli in PBS to which the sample was not added.

[2] = Comparison of thermal decomposition behavior by TGA of PMMA blends; format: physicochemical; conditions: TGA step 4, 50° C. to 600° C., 10° C./min, nitrogen; 40 parts by weight in 100 parts PMMA
Procedure: Poly(Methyl methacrylate) (TCI Chemical, CAS RN: 9011-14-7) was put into a Mixed Torque Rheometer (HAPRO), and then the temperature was raised to 160° C. and the mixture was mixed for 5 minutes. PIA-2 and icaridin were added in an amount of 40 parts by weight based on 100 parts by weight of poly(methyl methacrylate), respectively, mixed at a temperature of 160° C. for 30 minutes, and then cooled to room temperature to obtain a sample.
In order to confirm the thermal decomposition behavior of the prepared sample, experiments were performed as shown in Table 2 below using TGA (Thermogravimetric Analyzer, TA Instrument, DISCOVERY TGA 550 W/MFC & AUTO).

SMILES	Bacterial growth inhibition rate [1] [%]	1 hour-bacterial reduction rate (E. Coli) [%]	24 hour-bacterial reduction rate (E. Coli) [%]	Thermal decomposition behavior / heat resistance [2]
CCC(C)OC(=O)N1CCCCC1CCO (stereo not shown) [compound 2, Icaridin]	11.24	3.17	13.89	proceeds decomposition from a lower temperature than that of PIA-2
C=CC(=O)OC1CC(C)CCC1C(C)C (stereo not shown) [compound 3, Menthol acrylate]	0.2	0	0	–

Reference: patent US12534552B2, “Antibacterial polymer” (LG Chem, Ltd., priority 2020, dated 2026)
